For assay [1], the system named is BR canine mastocytoma cells. Kind of assay: Proliferation of BR cells, XTT-based assay. In kind it is cell-based. Particulars: for % (percent of maximal proliferation, cells only) / Averages (XTT-based assay reading): 72 hours; for Averages (XTT-based assay reading): triplicate. How it is done: (§1) Cell lines: BR and C2 canine mastocytoma cells lines were obtained from Dr. George Caughey (University of California at San Francisco, San Francisco, Calif.). Both cell lines were maintained in DMEM supplemented with 2% bovine calf, 1 mM L-glutamine, 12.5 mM HEPES (pH 7.5), 0.25 mg/ml Histidine, 1% Penicillin-Streptomycin and 1% fungizone. The BR and C2 cells were derived from canine mast cell tumors and were originally established in long-term culture after initial passaging in immunodeficient mice (DeVinney R et al., Am J Respir Cell Mol Biol 1990; 3(5):413-420; Lazarus S C et al., Am J Physiol 1986; 251(6 Pt 1):C935-C944). The BR cell line has a point mutation (T1752C) resulting in a Leucine to Proline substitution at amino acid 575 (juxtamembrane domain). The C2 cell line has an internal tandem duplication (ITD) of the KIT juxtamembrane region. The translation of this ITD results in reduplication of amino acid residues at the 3′ end of exon 11 (London et al., Exp. Hematol., Vol. 27, No. 4, pp. 689-697 (1999); Ma et al., J. Invest. Dermatol., Vol. 112, No. 2, pp. 165-170 (1999)).
(§2) Proliferation assays: Cells were added to 96-well plates at a density of 40,000 cells/well in normal culture media and varying concentrations of SALT I. Proliferation was measured at 48-72 hours using an XTT-based assay (Roche Molecular Biochemicals; Indianapolis, Ind.) (Heinrich et al., Blood, Vol. 96, No. 3, pp. 925-932 (2000))
(§3) Representative results from one of six independent experiments are shown.
(Tetrazolium dyes change colour on reduction, which living cells bring about.)

In assay [2] the target is T1, constitutively activated mutant canine KIT (BR cells, Leucine to Proline substitution at amino acid 575) (Canis lupus familiaris, UniProt O97799, L579P).
T1 construct: Lysates prepared from BR or C2 cells were probed with an anti-P-Tyr antibody; endogenous in cells; host or cells: BR canine mastocytoma cell line
Put plainly: KIT autophosphorylation in BR cells (anti-P-Tyr Western immunoblot). Type of assay: cell-based.
Description: (§4) Antibodies: A polyclonal rabbit anti-KIT antibody (c-kit Ab-1) was used at a dilution of 1:500 (c-kit Ab-1; Oncogene, Cambridge, Mass.). An anti-phosphotyrosine antibody (PY20) was used at a dilution of 1:1000 (PY20 Transduction Laboratories; Lexington, Ky.). Peroxidase conjugated goat anti-mouse antibody was used at a dilution of 1:5000 and goat anti-rabbit antibody at a dilution of 1:10,000 (Pierce; Rockford, Ill.).
as §1, with “region.” for “region. The translation of this ITD results in reduplication of amino acid residues at the 3′ end of exon 11 (London et al., Exp. Hematol., Vol. 27, No. 4, pp. 689-697 (1999); Ma et al., J. Invest. Dermatol., Vol. 112, No. 2, pp. 165-170 (1999)).”
(§5) Protein lysates: BR and C2 cells were washed×2 in PBS and then quiesced in Optimem (Gibco-BRL) at 37° C. for approximately 18 hours.
(§6) The KIT mutations in these cell lines are both located in the juxtamembrane domain and are homologous to mutations seen in human Gastrointestinal Stromal Tumors (GISTS) (Lux et al., Am. J. Pathol., Vol. 156, No. 3, pp. 791-795 (2000); Rubin et al., Cancer Res., Vol. 61, No. 22, pp. 8118-8121 (2001)). Lysates prepared from BR or C2 cells were probed with an anti-P-Tyr antibody and KIT receptor activation was assessed by measuring autophosphorylation.
(In general: Immunoblotting shows a protein as a band on a membrane.)

Assay [3] deals with cutaneous mast cell tumors. Kind of assay: Prospective case series of pet dogs with measurable cutaneous mast cell tumors. Particulars: 25 mg/kg PO QD x 60 days of SALT I, prospective example. Type of assay: in vivo. As to the method:
The study patients are pet dogs with measurable and histologically-confirmed mast cell tumors. Cases are limited to those with measurable lesions amenable to biopsy.
Eligibility criteria are: • Histologically-confirmed measurable cutaneous mast cell tumors • Cases will require serial biopsy with […] Keyes punch before and during therapy • Histological grade (II-intermediate or III-poorly differentiated) • Performance status 0 or I (Modified Karnofsky—Table 3) • Informed owner consent
Exclusion criteria are: • Concurrent cytotoxic chemotherapy • Prednisone and non-steroidal anti-inflammatory drugs may not be initiated within 30 days of the study; if prednisone or non-steroidal anti-inflammatory drugs have been administered for greater than 30 days they may be continued • Abnormal serum bile acid test (liver function)
Pretreatment evaluation of all cases include physical examination, complete blood count, buffy coat, serum biochemistry, urinalysis, serum bile acids (fasting and post-prandial), documentation of regional lymph node size, abdominal radiographs, and abdominal ultrasound. […]
The efficacy of COMPOUND I is assessed against measurable cutaneous mast cell tumors, using clinical endpoints. […]
Clinical endpoints include response rate of measurable tumors, objective response against measurable tumor, and time to progression of measurable tumor. All adverse side effects will be recorded.

In assay [4] the test system is C2 canine mastocytoma cells. Kind of assay: Proliferation of C2 cells, XTT-based assay. Type of assay: cell-based. Particulars: C2 cells (data not shown).
Assay [5] deals with C2 canine mastocytoma cells. Kind of assay: Proliferation of C2 cells, XTT-based assay. Type of assay: cell-based. Particulars: for % (percent of maximal proliferation, cells only) / Averages (XTT-based assay reading): 72 hours; for Averages (XTT-based assay reading): triplicate. How it is done: as §1, §2, §3
The subject of assay [6] is constitutively activated mutant canine KIT (C2 cells, internal tandem duplication of the juxtamembrane region). Put plainly: KIT autophosphorylation in C2 cells (anti-P-Tyr Western immunoblot). In kind it is cell-based.
Description: as §4
as §1, with “region.” for “region. The translation of this ITD results in reduplication of amino acid residues at the 3′ end of exon 11 (London et al., Exp. Hematol., Vol. 27, No. 4, pp. 689-697 (1999); Ma et al., J. Invest. Dermatol., Vol. 112, No. 2, pp. 165-170 (1999)).”
as §5, §6

The subject of assay [7] is cultured mast cells grown under stimulation with SCF. Put plainly: Detection of cellular apoptosis (PI flow cytometry, DNA gel electrophoresis).
Assay [8] relates to cultured human mast cells generated from CD34+ cord blood cells. Kind of assay: SCF-dependent growth of cultured human mast cells (suspension culture, trypan-blue viable cell count). Type of assay: cell-based. How it is done: (§7) More than 90% of the isolated cells were CD34-positive according to the flow cytometric analysis.
(§8) Serum-deprived liquid cultures are carried out in 24-well culture plates (#3047; Becton Dickinson). Twenty thousand CD34^+ cells are cultured in each well containing 2 mL of […]-medium supplemented with 1% BSA, 300 μg/mL fully iron-saturated human transferrin (approximately 98% pure, Sigma), 16 μg/mL soybean lecithin (Sigma), 9.6 μg/mL cholesterol (Nakalai Chemicals Ltd., Japan) and 20 ng/mL of SCF, 10 ng/mL of GM-CSF, 2 U/mL of EPO, 10 ng/mL of TPO, different concentrations of a COMPOUND OF THE INVENTION, alone or in combination. In order to examine the effects of a COMPOUND OF THE INVENTION on the SCF-dependent development of mast cells, 10-week cultured cells grown with 20 ng/mL of SCF from CD34^+ cord blood cells are used as target cells. Five to ten×10^4 10-week cultured cells are incubated for 2 weeks in 24-well culture plates containing 20 ng/mL of SCF with or without various concentrations of a COMPOUND OF THE INVENTION. The plates are incubated at 37° C. in a humidified atmosphere flushed with a mixture of 5% CO2, 5% O2 and 90% N2. When the culture continued until 4 weeks, half of the culture medium is replaced every 2 weeks with fresh medium containing the factor(s). The number of viable cells is determined by a trypan-blue exclusion test using a hemocytometer.

A further assay relates to CD34+ cord blood cells. Kind of assay: Cell production by CD34+ cells under stimulation with SCF (suspension culture). Type of assay: cell-based, human. The following applies: STI571B at 10^-6 M. How it is done:
as §7, §8

Setting [9] is: membrane reprobed with anti-c-kit antibody.

T1 sequence (O97799 28-979 L579P): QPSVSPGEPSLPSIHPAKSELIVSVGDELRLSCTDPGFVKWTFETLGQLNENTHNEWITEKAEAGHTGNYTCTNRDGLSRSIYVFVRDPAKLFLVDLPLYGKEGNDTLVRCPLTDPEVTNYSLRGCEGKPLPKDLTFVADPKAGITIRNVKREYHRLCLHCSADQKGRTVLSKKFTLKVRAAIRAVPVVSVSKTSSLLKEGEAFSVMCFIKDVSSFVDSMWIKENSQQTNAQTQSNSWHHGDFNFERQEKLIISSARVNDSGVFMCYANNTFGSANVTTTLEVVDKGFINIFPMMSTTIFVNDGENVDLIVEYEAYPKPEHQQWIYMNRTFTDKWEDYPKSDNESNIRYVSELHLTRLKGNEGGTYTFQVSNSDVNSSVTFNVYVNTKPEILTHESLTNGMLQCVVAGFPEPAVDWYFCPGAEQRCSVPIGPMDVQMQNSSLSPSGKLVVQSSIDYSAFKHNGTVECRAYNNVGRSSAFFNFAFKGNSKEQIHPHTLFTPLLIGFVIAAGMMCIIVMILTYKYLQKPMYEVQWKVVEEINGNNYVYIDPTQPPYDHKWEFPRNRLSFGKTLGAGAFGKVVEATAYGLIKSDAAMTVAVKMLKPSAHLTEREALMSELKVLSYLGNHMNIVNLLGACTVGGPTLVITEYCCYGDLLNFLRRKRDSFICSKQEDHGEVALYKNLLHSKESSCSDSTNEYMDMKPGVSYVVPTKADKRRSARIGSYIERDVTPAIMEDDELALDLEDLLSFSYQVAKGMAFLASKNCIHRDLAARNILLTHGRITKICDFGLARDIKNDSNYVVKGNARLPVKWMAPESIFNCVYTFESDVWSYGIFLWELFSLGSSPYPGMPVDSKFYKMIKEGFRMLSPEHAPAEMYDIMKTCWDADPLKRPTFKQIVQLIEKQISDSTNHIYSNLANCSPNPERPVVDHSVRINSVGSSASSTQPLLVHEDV

In the case of `Cc1ccc(NC(=O)c2ccc(CN3CCN(C)CC3)cc2)cc1Nc1nccc(-c2cccnc2)n1` [COMPOUND I], the “morphologic observations of inhibitor treated cells” value in [1] (BR cells (data not shown)) and in assay [4] was “changes consistent with apoptosis” throughout. Further, the “% (percent of maximal proliferation, cells only)” value is listed as 11% in [1] (BR cells, 1 μM); 9% in assay [1] (BR cells, 5 μM); 84% in [1] (BR cells, .001 μM); 52% in assay [1] (BR cells, .01 μM); 11% in assay [1] (BR cells, .1 μM); 3% in assay [5] (1 μM). Also, the “% (percent of maximal proliferation, cells only)” value worked out at 3% in [5] (5 μM), 86% in assay [5] (.001 μM), 61% in [5] (.01 μM) and 2% in assay [5] (.1 μM). Further, the “Averages (XTT-based assay reading)” value was 0.105 in [1] (BR cells, 1 μM); 0.083 in assay [1] (BR cells, 5 μM); 0.781 in assay [1] (BR cells, .001 μM); 0.479 in assay [1] (BR cells, .01 μM); 0.105 in assay [1] (BR cells, .1 μM); 0.037 in [5] (1 μM). In addition, the “Averages (XTT-based assay reading)” value in assay [5] (5 μM) is 0.032; in [5] (.001 μM), 1.065; in assay [5] (.01 μM), 0.754; in assay [5] (.1 μM), 0.028. Also, the inhibition of proliferation entry in assay [1] (BR cells, 0.001-0.01 μM, 48-72 hours) is “Partial inhibition”; in [5] (0.001-0.01 μM, 48-72 hours), “Partial inhibition”. Moreover, the “decrease of proliferation compared to cells treated with media only” value in [1] (BR cells, 0.1-10 μM, 48-72 hours) is recorded as 90-95%; in [5] (0.1-10 μM, 48-72 hours), 90-95%. Further, the “inhibition of KIT autophosphorylation” value in [2] (0.1 μM) was “Near complete inhibition”; in assay [2] (1.0 μM), “complete inhibition”; in [2] (10 μM), “complete inhibition”; in [6] (0.1 μM), “Near complete inhibition”; in [6] (1.0 μM) it was “complete inhibition”; in [6] (10 μM) it was “complete inhibition”. In addition, the autophosphorylation of c-kit entry in assay [2] (0.001-0.01 μM) and in [6] (0.001-0.01 μM) was “Limited autophosphorylation” each time. The “expression of c-kit protein” value in [2] (setting [9]) and in [6] (setting [9]) was “no change” in each case. Besides, in [3], the “Objective Tumors Responses” value is given as “observed”.

As for `Cc1ccc(NC(=O)c2ccc(CN3CCN(C)CC3)cc2)cc1Nc1nccc(-c2cccnc2)n1` [STI571B, N-{5-[4-(4-methyl-piperazino-methyl)-benzoylamido]-2-methyl-phenyl}-4-(3-pyridyl)-2-pyrimidine-amine monomesylate], in assay [7] (SCF plus STI571B, over culture period), the “percentage of sub-diploid nuclei” value is listed as “increases with the culture period”. For the same molecule, in assay [7] (cells exposed to SCF plus STI571B), the “DNA laddering on gel electrophoresis” value is “DNA laddering”. In addition, in assay [7] (grown under stimulation with SCF), the “programmed death of cultured mast cells” value is “induces a programmed death”. Also, the “number of viable cells” value in assay [8] (SCF plus STI571B, after day 2) is on record as “declines in a time-dependent fashion”; in [8] (SCF plus STI571B, day 2), “unchanged”. For the same molecule, the total cell number entry in [8] (SCF plus STI571B, day 14) is given as “negligible level”. The “progeny generation in culture with SCF” value in [8] (STI571B at 10^-6 M or higher, 10-week cultured mast cells, SCF) is “almost completely inhibits”. Also, in the assay on CD34+ cord blood cells, the “cell production by CD34+ cells under stimulation with SCF” value was “markedly depresses”.

Values taken from patent publication US20120277246A1, “Use of N-Phenyl-2-pyrimidineamine Derivatives Against Mast Cell-based Diseases Like Allergic Disorders” (priority 2001, published 2012).
